Structures can show the parent of a compound that is named as a salt.
Legend:
Format in all cases: in vivo
[1] = system: mice; assay: Expectorant test in mice using a phenol red method; settings: for Tracheal phenol red excretion: n=10, phenol red i.p. 1 h after dosing, sacrifice 0.5 h later; for Expectorant effect (secretion of phenol red in tracheal segment), result in words: comparison between groups
Experimental: In Vivo Pharmacodynamic Test—Expectorant Test in Mice Using a Phenol Red Method
In this example, the in vivo efficacy of the compounds I1, I4, I13 of the present disclosure and known compounds was tested.
Mice in the positive control group were give medicinal ammonium chloride and ambroxol hydrochloride orally, mice in the normal control group were given normal saline of the same amount, and mice the other groups were given corresponding drugs by gavage. The mice were administered by gavage once in the morning and afternoon (excluding ammonium chloride) 2 days before the experiment. After 1 hour of intragastric administration on the morning of the experiment, the mice were intraperitoneally injected with 0.5 ml of phenol red, and the mice were sacrificed 0.5 hours later. The tissue surrounding the organs was peeled off, and a section of the trachea from the thyroid cartilage to the branch of the trachea was cut off and placed in a test tube containing 2 ml of normal saline. The tube was shaken for 30 minutes, the trachea was discarded, and 0.2 ml of sodium hydroxide (1 mol/L) was added to each sample solution. The OD value was measured using a UV-visible spectrophotometer at a wavelength of 546 nm, and the absorbance values were converted into the phenol red content according to the phenol red standard curve.
The data was processed by PEMS medical statistical software.

[2] = Acute toxicity test in mice administered intravenously; settings: male, ICR, mouse, in vivo, iv
Experimental: (§1) Acute toxicity test of the compound of the present disclosure to mice administered intravenously
(§2) To test the acute toxicity of compounds of the present disclosure and comparative compounds, the following experiments were performed.
(§3) Compounds of the present disclosure were dissolved in water and administered to 5 ICR mice (mice of 5-week old, male, weighing 20 g±2 g). Intravenous administration was performed to determine the median lethal dose (LD50, mg/kg). Ambroxol hydrochloride was used as a control.

[3] = system: ICR mice; assay: as above; settings: ICR mice, intravenous
Experimental: as §1, §2, §3

[4] = gavage, dose 2.0 ml/kg (high dose)
[5] = gavage, dose 0.5 ml/kg (low dose)

| Compound | Tracheal phenol red excretion [1, 4] | LD50 [2] | Expectorant effect (secretion of phenol red in tracheal segment), result in words [1] | Tracheal phenol red excretion ([1]; oral, dose 1.0 ml/kg) | LD50 compared with ambroxol hydrochloride, in words [3] | Tracheal phenol red excretion [1, 5] | Dose-effect relationship of expectorant effect ([1]; 0.5 vs 2.0 ml/kg) |
| --- | --- | --- | --- | --- | --- | --- | --- |
| CC(=O)N[C@@H](CS)C(=O)O [Acetylcysteine, acetylcysteine, reference compound] | 1.532 ± 0.247 ΔΔ** mg/L |  |  |  |  |  |  |
| Nc1c(Br)cc(Br)cc1CN[C@H]1CC[C@H](O)CC1 [Ambroxol, ambroxol hydrochloride, reference compound] | 1.418 ± 0.352 ΔΔ** mg/L | 268 mg/kg | best effect |  |  |  |  |
| Cl.N [Ammonium chloride, ammonium chloride, reference compound] |  |  |  | 0.875 ± 0.208 ΔΔ** mg/L |  |  |  |
| Cl.Nc1c(Br)cc(Br)cc1CN[C@H]1CC[C@H](S)CC1 [I1, trans-4-[(2-amino-3,5-dibromo-benzyl)amino]-cyclohexanethiol hydrochloride] | 1.610 ± 0.284 ΔΔ** mg/L | 453 mg/kg | best effect |  | much higher | 1.225 ± 0.337 ΔΔ** mg/L |  |
| CN(Cc1cc(Br)cc(Br)c1N)[C@H]1CC[C@H](S)CC1.Cl [I4, trans-4-[(2-amino-3,5-dibromo-benzyl)-methyl-amino]-cyclohexanethiol hydrochloride] | 1.273 ± 0.275 ΔΔ** mg/L | 523 mg/kg |  |  | much higher | 1.083 ± 0.312 ΔΔ** mg/L |  |
| Nc1c(Br)cc(Br)cc1CN[C@H]1CC[C@H](SCCCO)CC1 [I13, trans 3-[4-(2-amino-3,5-dibromo-benzylamino)-cyclohexylsulfanyl]-propan-1-ol] | 1.826 ± 0.334 ΔΔ** mg/L | 507 mg/kg | strongest effect |  | much higher | 1.452 ± 0.351 ΔΔ** mg/L | relatively obvious dose-effect relationship |
